Values quoted from earlier work in patent US20100104634A1, “PHARMACEUTICAL COMPOSITIONS OF ENTACAPONE” (priority 2006, published 2010).

Details: low solubility, low dissolution rate, low bioavailability

CCN(CC)C(=O)/C(C#N)=C/c1cc(O)c(O)c([N+](=O)[O-])c1 [Entacapone, (E)-2-cyano-3-(3,4-dihydroxy-5-nitrophenyl)-N,N-diethyl-2-propenamide]
Biopharmaceutics Classification system (BCS) class: class IV
